This is an account of results in US20230220021A1, “CYCLIC PEPTIDE INHIBITORS OF PSD-95 AND USES THEREOF” (University of Copenhagen, priority 2020, published 2023).

Where a SMILES comes first, the peptide text is derived from it. [ ]: non-standard residue; d: D form.

T1 sequence (P78352 160-246 limits assumed): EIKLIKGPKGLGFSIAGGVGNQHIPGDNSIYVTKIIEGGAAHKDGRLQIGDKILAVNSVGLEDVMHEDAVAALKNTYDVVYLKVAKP

The first experiment concerns the target T1, PSD-95-PDZ2 (Homo sapiens, UniProt P78352).
T1 construct: 7xHis (N); made in house; host or cells: Escherichia coli B21 pLys (for the mutants, 'as previously described')
Put plainly: Fluorescence polarization (FP) competition assay against cyclic nNOS TAMRA probe. The settings on record: FP competition, N-methylation. In kind it is binding.
For `CC[C@H](C)[C@@H]1NC(=O)[C@H]([C@@H](C)O)NC(=O)[C@H](CCCCN)N(C)C(=O)[C@@H]2CCCN2C(=O)[C@H]([C@@H](C)O)NC(=O)CNC(=O)[C@H](CC(=O)O)NC(=O)CNC(=O)[C@H]([C@@H](C)O)NC(=O)[C@H](Cc2ccccc2)NC(=O)[C@H]([C@@H](C)O)NC(=O)[C@H]([C@@H](C)O)NC(=O)[C@H](CCC(=O)O)NC(=O)[C@H](CC(C)C)NC(=O)[C@H](Cc2c[nH]cn2)NC(=O)[C@H]([C@@H](C)O)NC(=O)[C@H](CCC(N)=O)NC(=O)CNC(=O)[C@H]2CCCN2C(=O)[C@H](CCC(N)=O)NC(=O)[C@H]([C@@H](C)O)NC(=O)[C@H](C(C)C)NC(=O)[C@H](CCCNC(=N)N)NC1=O` [SEQ ID NO: 96], the “fold improved binding affinity” value was 2 fold.
On to `CC[C@H](C)[C@@H]1NC(=O)[C@H]([C@@H](C)O)NC(=O)[C@H](CCCCN)NC(=O)[C@@H]2CCCN2C(=O)[C@H]([C@@H](C)O)NC(=O)CNC(=O)[C@H](CC(=O)O)NC(=O)CNC(=O)[C@H]([C@@H](C)O)NC(=O)[C@H](Cc2ccccc2)NC(=O)[C@H]([C@@H](C)O)NC(=O)[C@H]([C@@H](C)O)NC(=O)[C@H](CCC(=O)O)NC(=O)[C@H](CC(C)C)NC(=O)[C@H](Cc2c[nH]cn2)NC(=O)[C@H]([C@@H](C)O)NC(=O)[C@H](CCC(N)=O)NC(=O)CNC(=O)[C@H]2CCCN2C(=O)[C@H](CCC(N)=O)NC(=O)[C@H]([C@@H](C)O)N(C)C(=O)[C@H](C(C)C)NC(=O)[C@H](CCCNC(=N)N)NC1=O` [SEQ ID NO: 101], for which the “fold improved binding affinity” value is listed as 2 fold.

Staying with this experiment, now noted: FP competition, cyclic nNOS TAMRA probe; mean of triplicates; N.B. = not binding.
As for “86 (THXETTFTGDGTPKTIRVTQPGQ; cyclized peptide; (3)..(3) X is N-Me-L; (21)..(21) is D-AA) [compound 86]”, the Ki – broadly, the dissociation constant of the complex between target and ligand, obtained from inhibition or displacement – is “N.B”.

Staying with this experiment, now noted: FP competition, cyclic nNOS TAMRA probe; mean of triplicates; N.B. = not binding; read-out: Ki.
In the case of `CC[C@H](C)[C@@H]1NC(=O)[C@H]([C@@H](C)O)NC(=O)[C@H](CCCCN)NC(=O)[C@@H]2CCCN2C(=O)[C@H](CCC(=O)O)NC(=O)[C@H](C)NC(=O)[C@H](CC(=O)O)NC(=O)CNC(=O)[C@H](Cc2c[nH]c3ccccc23)NC(=O)[C@H](Cc2ccccc2)NC(=O)[C@H]([C@@H](C)O)NC(=O)[C@H]([C@@H](C)O)NC(=O)[C@H](CCC(=O)O)NC(=O)[C@H](CC(C)C)NC(=O)[C@H](Cc2c[nH]cn2)NC(=O)[C@H]([C@@H](C)O)NC(=O)[C@H](CCC(N)=O)NC(=O)CNC(=O)[C@H]2CCCN2C(=O)[C@H](CCC(N)=O)NC(=O)[C@H]([C@@H](C)O)NC(=O)[C@H](C(C)C)NC(=O)[C@H](CCCNC(=N)N)NC1=O` [compound 134] (cyclo(THLETTFWGDAEPKTIRVTQ[dP]GQ)), the inhibition constant (Ki) stood at 0.26 µM.
Regarding `CC[C@H](C)[C@@H]1NC(=O)[C@H]([C@@H](C)O)NC(=O)[C@H](CCCCN)NC(=O)[C@@H]2CCCN2C(=O)[C@H]([C@@H](C)O)NC(=O)CNC(=O)[C@@H](CC(=O)O)NC(=O)CNC(=O)[C@H]([C@@H](C)O)NC(=O)[C@H](Cc2ccccc2)NC(=O)[C@H]([C@@H](C)O)NC(=O)[C@H]([C@@H](C)O)NC(=O)[C@H](CCC(=O)O)NC(=O)[C@H](CC(C)C)NC(=O)[C@H](Cc2c[nH]cn2)NC(=O)[C@H]([C@@H](C)O)NC(=O)[C@H](CCC(N)=O)NC(=O)CNC(=O)[C@H]2CCCN2C(=O)[C@H](CCC(N)=O)NC(=O)[C@H]([C@@H](C)O)NC(=O)[C@H](C(C)C)NC(=O)[C@H](CCCNC(=N)N)NC1=O` [compound 120], the Ki was determined as 0.59 µM.
On the same count and under the same terms, under `CC[C@H](C)[C@@H]1NC(=O)[C@H]([C@@H](C)O)NC(=O)[C@H](CCCCN)N(C)C(=O)[C@@H]2CCCN2C(=O)[C@H]([C@@H](C)O)NC(=O)CNC(=O)[C@H](CC(=O)O)NC(=O)CNC(=O)[C@H]([C@@H](C)O)NC(=O)[C@H](Cc2ccccc2)NC(=O)[C@H]([C@@H](C)O)NC(=O)[C@H]([C@@H](C)O)NC(=O)[C@H](CCC(=O)O)NC(=O)[C@H](CC(C)C)NC(=O)[C@H](Cc2c[nH]cn2)NC(=O)[C@H]([C@@H](C)O)NC(=O)[C@H](CCC(N)=O)NC(=O)CNC(=O)[C@H]2CCCN2C(=O)[C@H](CCC(N)=O)NC(=O)[C@H]([C@@H](C)O)NC(=O)[C@H](C(C)C)NC(=O)[C@H](CCCNC(=N)N)NC1=O` [SEQ ID NO: 96] stands 0.5 ± 0.1 µM.
As for `CC[C@H](C)[C@@H]1NC(=O)[C@H]([C@@H](C)O)NC(=O)[C@H](CCCCN)NC(=O)[C@@H]2CCCN2C(=O)CNC(=O)[C@H](CC(=O)O)NC(=O)CNC(=O)[C@H]([C@@H](C)O)NC(=O)[C@H](Cc2ccccc2)NC(=O)[C@H]([C@@H](C)O)NC(=O)[C@H]([C@@H](C)O)NC(=O)[C@H](CCC(=O)O)NC(=O)[C@H](CC(C)C)NC(=O)[C@H](Cc2c[nH]cn2)NC(=O)[C@H]([C@@H](C)O)NC(=O)[C@H](CCC(N)=O)NC(=O)CNC(=O)[C@H]2CCCN2C(=O)[C@H](CCC(N)=O)NC(=O)[C@H]([C@@H](C)O)NC(=O)[C@H](C(C)C)NC(=O)[C@H](CCCNC(=N)N)NC1=O` [compound 77] (cyclo(THLETTFTGDGPKTIRVTQ[dP]GQ)), the Ki was determined as 1.43 µM.
Still for that read-out and setting: under `CC[C@H](C)[C@@H]1NC(=O)[C@H]([C@@H](C)O)NC(=O)[C@H](CCCCN)NC(=O)[C@@H]2CCCN2C(=O)[C@H]([C@@H](C)O)NC(=O)CNC(=O)[C@H](CC(=O)O)NC(=O)CNC(=O)[C@H]([C@@H](C)O)NC(=O)[C@H](Cc2ccccc2)NC(=O)[C@H]([C@@H](C)O)NC(=O)[C@H]([C@@H](C)O)NC(=O)[C@H](CCC(=O)O)NC(=O)[C@H](CC(C)C)NC(=O)[C@H](Cc2c[nH]cn2)NC(=O)[C@H]([C@@H](C)O)NC(=O)[C@H](CCC(N)=O)NC(=O)CNC(=O)[C@H]2CCCN2C(=O)[C@H](CCC(N)=O)NC(=O)[C@H]([C@@H](C)O)N(C)C(=O)[C@H](C(C)C)NC(=O)[C@H](CCCNC(=N)N)NC1=O` [SEQ ID NO: 101] stands 0.6 ± 0.1 µM.

The experiment is the same for the next values; noted with them: FP inhibition constant normalized to WT value.
With `CC[C@H](C)[C@@H]1NC(=O)[C@H]([C@@H](C)O)NC(=O)[C@H](CCCCN)NC(=O)[C@@H]2CCCN2C(=O)[C@H](CC(N)=O)NC(=O)CNC(=O)[C@H](CC(=O)O)NC(=O)CNC(=O)[C@H]([C@@H](C)O)NC(=O)[C@H](Cc2ccccc2)NC(=O)[C@H]([C@@H](C)O)NC(=O)[C@H]([C@@H](C)O)NC(=O)[C@H](CCC(=O)O)NC(=O)[C@H](CC(C)C)NC(=O)[C@H](Cc2c[nH]cn2)NC(=O)[C@H]([C@@H](C)O)NC(=O)[C@H](CCC(N)=O)NC(=O)CNC(=O)[C@H]2CCCN2C(=O)[C@H](CCC(N)=O)NC(=O)[C@H]([C@@H](C)O)NC(=O)[C@H](C(C)C)NC(=O)[C@H](CCCNC(=N)N)NC1=O` [compound 40] (cyclo(THLETTFTGDGNPKTIRVTQ[dP]GQ)), the “Relative Ki (Ki mut/Ki WT)” value is recorded as 0.34.
On the same count and under the same terms, under `CC[C@H](C)[C@@H]1NC(=O)[C@H]([C@@H](C)O)NC(=O)[C@H](CCCCN)NC(=O)[C@@H]2CCCN2C(=O)[C@H]([C@@H](C)O)NC(=O)CNC(=O)[C@H](CC(=O)O)NC(=O)CNC(=O)[C@H]([C@@H](C)O)NC(=O)[C@H](Cc2ccccc2)NC(=O)[C@H]([C@@H](C)O)NC(=O)[C@H]([C@@H](C)O)NC(=O)[C@H](CCC(=O)O)NC(=O)[C@H](CC(C)C)NC(=O)[C@H](Cc2c[nH]cn2)NC(=O)[C@H]([C@@H](C)O)NC(=O)[C@H](CCC(N)=O)NC(=O)CNC(=O)[C@H]2CCCN2C(=O)[C@H](CCC(N)=O)NC(=O)[C@H](Cc2ccccc2)NC(=O)[C@H](C(C)C)NC(=O)[C@H](CCCNC(=N)N)NC1=O` [compound 48] (cyclo(THLETTFTGDGTPKTIRVFQ[dP]GQ)) stands 1.05; under `CC[C@H](C)[C@@H]1NC(=O)[C@H]([C@@H](C)O)NC(=O)[C@H](CCCCN)NC(=O)[C@@H]2CCCN2C(=O)[C@H](Cc2c[nH]c3ccccc23)NC(=O)CNC(=O)[C@H](CC(=O)O)NC(=O)CNC(=O)[C@H]([C@@H](C)O)NC(=O)[C@H](Cc2ccccc2)NC(=O)[C@H]([C@@H](C)O)NC(=O)[C@H]([C@@H](C)O)NC(=O)[C@H](CCC(=O)O)NC(=O)[C@H](CC(C)C)NC(=O)[C@H](Cc2c[nH]cn2)NC(=O)[C@H]([C@@H](C)O)NC(=O)[C@H](CCC(N)=O)NC(=O)CNC(=O)[C@H]2CCCN2C(=O)[C@H](CCC(N)=O)NC(=O)[C@H]([C@@H](C)O)NC(=O)[C@H](C(C)C)NC(=O)[C@H](CCCNC(=N)N)NC1=O` [compound 36] (cyclo(THLETTFTGDGWPKTIRVTQ[dP]GQ)), 0.69.
`CC[C@H](C)[C@@H]1NC(=O)[C@H]([C@@H](C)O)NC(=O)[C@H](CCCCN)NC(=O)[C@@H]2CCCN2C(=O)[C@H]([C@@H](C)O)NC(=O)CNC(=O)[C@H](CC(=O)O)NC(=O)CNC(=O)[C@H]([C@@H](C)O)NC(=O)[C@H](Cc2ccccc2)NC(=O)[C@H]([C@@H](C)O)NC(=O)[C@H]([C@@H](C)O)NC(=O)[C@H](CCC(=O)O)NC(=O)[C@H](CC(C)C)NC(=O)[C@H](Cc2c[nH]cn2)NC(=O)[C@H]([C@@H](C)O)NC(=O)[C@H](CCC(N)=O)NC(=O)CNC(=O)[C@H]2CCCN2C(=O)[C@H](CCC(N)=O)NC(=O)[C@H](Cc2ccc(O)cc2)NC(=O)[C@H](C(C)C)NC(=O)[C@H](CCCNC(=N)N)NC1=O` [compound 49] (cyclo(THLETTFTGDGTPKTIRVYQ[dP]GQ)): the “Relative Ki (Ki mut/Ki WT)” value is 1.25.
